Values of other authors, collected in patent US20150209317A1, “Plant Extracts for Improving Cognitive Function” (Kemin Industries, Inc., priority 2014, published 2015).

Legend:
[1] = subchronic administration (Park 2010)
[2] = system: aging mice; conditions: RA administration to aging mice

Q: With `O=C(/C=C/c1ccc(O)c(O)c1)O[C@H](Cc1ccc(O)c(O)c1)C(=O)O` [Rosmarinic acid] as the compound, how does the “Memory in the Morris water maze spatial task” value [1] read?
A: The value was “improved memory”.

Q: And the “Catalase (CAT) activity in the brain” value [2]?
A: The value was “increased”.

Q: And the “Malondialdehyde (MDA) in the brain” value [2]?
A: The value was “decreasing”.

Q: And the “Superoxide dismutase (SOD) activity in the brain” value [2]?
A: The value was “increased”.
